# Like-named read-outs stand apart in the source and are kept apart here.
# Target: T1, hMCHR (MCH receptor) (Homo sapiens, UniProt Q99705)
# T1 construct: (or internally produced); host or cells: CHO (Chinese hamster ovary) cells, membrane preparation
# Assay: MCH Assay PCOP Protocol ([125I]-MCH SPA binding to hMCHR-CHO membranes);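 as to Activity (Ki range): A 0.4–50 nM B 51–500 nM C 501–2500 nM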
# Description: A reaction mixture of 10 μg hMCHR-CHO overexpressing membranes (from Receptor Biology, Inc., Beltsville, Md., or internally produced) and 100 μg/well WGA-SPA beads (from Amersham Pharmacia Biotech, Inc., Piscataway, N.J.)/100 μl was prepared in MCHR assay buffer (25 mM HEPES, pH 7.4, 10 mM NaCl, 10 mM MgCl2, 5 mM MnCl2, 0.1% BSA). […] The assay plates were shaken for 5 minutes on a plate shaker, then incubated for 2 hours before cpm/well were determined in a Microbeta Trilux counter (from PerkinElmer Wallac, Inc., Gaithersburg, Md.).
# [1] = [125I]-MCH 0.5 nM, hMCHR-CHO membranes, read-out: Activity (ranges of Ki values)
# [2] = [125I]-MCH binding to hMCHR-CHO membranes, class symbols for ranges of Ki, read-out: Activity (Ki range)
# [3] = [125I]-MCH SPA binding, hMCHR-CHO membranes, Ki class ranges, read-out: Activity (range of Ki)
# T1 sequence (Q99705 whole entry): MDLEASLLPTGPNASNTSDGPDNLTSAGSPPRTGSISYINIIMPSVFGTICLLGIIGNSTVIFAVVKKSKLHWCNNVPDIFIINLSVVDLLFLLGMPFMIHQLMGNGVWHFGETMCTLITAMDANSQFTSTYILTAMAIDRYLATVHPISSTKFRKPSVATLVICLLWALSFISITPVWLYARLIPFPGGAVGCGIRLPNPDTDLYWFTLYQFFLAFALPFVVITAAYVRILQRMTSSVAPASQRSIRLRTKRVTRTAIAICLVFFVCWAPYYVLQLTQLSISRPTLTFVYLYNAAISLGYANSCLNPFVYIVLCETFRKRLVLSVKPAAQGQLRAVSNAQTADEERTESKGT
Compound,Ki [1] [µM],Ki [2] [µM],also measured
CNCCC(CNC(=O)Nc1ccc(F)cc1)c1ccc(-c2cccc(C#N)c2)cc1 (stereo not drawn) [Example 60],0.0004 to 0.05,–,–
CN(C)CCCNCCC(CNC(=O)Nc1ccc(Cl)c(Cl)c1)c1ccc(Cl)c(Cl)c1 (stereo not drawn) [Example 305],–,0.501 to 2.5,–
CN(C)CCCNCCC(CNC(=O)Nc1cc(Cl)cc(Cl)c1)c1ccc(-c2ccccc2Cl)cc1 (stereo not drawn) [Example 232],–,0.051 to 0.5,–
COc1cc(CNCCC(CNC(=O)Nc2ccc(Cl)c(Cl)c2)c2ccc(Cl)c(Cl)c2)cc(OC)c1OC (stereo not drawn) [Example 259],–,0.051 to 0.5,–
N#Cc1cccc(-c2ccc(C(CCNC3CCCC3)CNC(=O)Nc3ccc(F)c(Cl)c3)cc2)c1 (stereo not drawn) [Example 75],0.0004 to 0.05,–,–
N#Cc1cccc(-c2ccc(C(CCNC3CC3)CNC(=O)c3cc(F)cc(F)c3)cc2)c1 (stereo not drawn) [Example 69],0.051 to 0.5,–,–
CN(C)CCCNCCC(CNC(=O)Nc1cc(Cl)cc(Cl)c1)c1cccc(-c2ccc(C(F)(F)F)cc2)c1 (stereo not drawn) [Example 150],0.051 to 0.5,–,–
O=C(NCC(CCNC1CCCC1)c1ccc(Cl)cc1)Nc1ccc(Cl)c(Cl)c1 (stereo not drawn) [Example 124],0.051 to 0.5,–,–
O=C(NCC(CCN1CCC(CO)C1)c1ccc(Cl)c(Cl)c1)Nc1cc(C(F)(F)F)cc(C(F)(F)F)c1 (stereo not drawn) [Example 432],–,–,Ki [3]: 0.501 to 2.5 µM
O=C(NCC(CCNCC1CCCO1)c1ccc(Cl)c(Cl)c1)Nc1cc(C(F)(F)F)cc(C(F)(F)F)c1 (stereo not drawn) [Example 431],–,–,Ki [3]: 0.501 to 2.5 µM
Cc1ccc(-c2ccc(C(CCNCCCN(C)C)CNC(=O)Nc3cc(Cl)cc(Cl)c3)cc2)cc1 (stereo not drawn) [Example 254],–,0.501 to 2.5,–
O=C(NCC(CCNCCc1ccc(O)cc1)c1ccc(Cl)c(Cl)c1)Nc1cc(C(F)(F)F)cc(C(F)(F)F)c1 (stereo not drawn) [Example 426],–,–,Ki [3]: 0.501 to 2.5 µM
O=C(NCC(CCN1CCC(NC(=O)c2ccno2)CC1)c1ccc(Cl)c(Cl)c1)Nc1cc(Cl)cc(Cl)c1 (stereo not drawn) [Example 217],–,0.501 to 2.5,–
CN(C)CCCNCCC(CNC(=O)Nc1cc(Cl)cc(Cl)c1)c1ccc2c(c1)OCO2 (stereo not drawn) [Example 116],0.501 to 2.5,–,–
O=C(NCC(CCN1CCC(NC(=O)c2cccs2)C1)c1ccc(Cl)cc1)Nc1cc(Cl)cc(Cl)c1 (stereo not drawn) [Example 183],0.051 to 0.5,–,–
CN(C)CCCNCCC(C)(CNC(=O)Nc1ccc(Cl)c([N+](=O)[O-])c1)c1ccc(Cl)c(Cl)c1 (stereo not drawn) [Example 115],0.501 to 2.5,–,–
O=C(NCC(CCNCCc1ccc(O)cc1)c1ccc(Cl)c(Cl)c1)Nc1ccc(F)c([N+](=O)[O-])c1 (stereo not drawn) [Example 138],0.051 to 0.5,–,–
O=C(NCC(CCNC1CCCC1)c1ccc(Cl)c(Cl)c1)Nc1cccc(Br)c1 (stereo not drawn) [Example 133],0.051 to 0.5,–,–
COc1ccccc1-c1ccc(C(CCNC2CCCC2)CNC(=O)Nc2cc(Cl)cc(Cl)c2)cc1 (stereo not drawn) [Example 238],–,0.051 to 0.5,–
O=C(NCC(CCN1CCCC1CN1CCCC1)c1ccc(Cl)c(Cl)c1)Nc1cc(C(F)(F)F)cc(C(F)(F)F)c1 (stereo not drawn) [Example 430],–,–,Ki [3]: 0.501 to 2.5 µM
COc1cscc1C(=O)NC1CCN(CCC(CNC(=O)Nc2cc(Cl)cc(Cl)c2)c2ccc(Cl)cc2)C1 (stereo not drawn) [Example 197],0.051 to 0.5,–,–
CN(C)CCCNCCC(CNC(=O)Nc1cc(Cl)cc(Cl)c1)c1ccc(-c2ccc(F)cc2)cc1 (stereo not drawn) [Example 237],–,0.051 to 0.5,–
O=C(NCC(CCNC1CCCC1)c1ccc(Cl)c(Cl)c1)Nc1cc(Cl)cc(Cl)c1 (stereo not drawn) [Example 280],–,0.051 to 0.5,–
COc1ccc(-c2ccc(C(CCNCCCN(C)C)CNC(=O)Nc3cc(Cl)cc(Cl)c3)cc2)c(OC)c1 (stereo not drawn) [Example 239],–,0.051 to 0.5,–

Compound,Ki [1] [µM],Ki [2] [µM],also measured
CN(C)CCCNCCC(C)(CNC(=O)Nc1ccc(F)c([N+](=O)[O-])c1)c1ccc(Cl)c(Cl)c1 (stereo not drawn) [Example 117],0.501 to 2.5,–,–
O=C(NCC(CCNC1CCCC1)c1ccc(-c2cccc(C(=O)O)c2)cc1)Nc1cc(Cl)cc(Cl)c1 (stereo not drawn) [Example 248],–,0.051 to 0.5,–
O=C(NCC(CCNC1CCCC1)c1ccc(-c2ccc(F)c(F)c2)cc1)Nc1cc(Cl)cc(Cl)c1 (stereo not drawn) [Example 90],0.0004 to 0.05,–,–
N#Cc1cccc(-c2ccc(C(CCNC3CC3)CNC(=O)Nc3ccc(F)c(F)c3)cc2)c1 (stereo not drawn) [Example 53],0.0004 to 0.05,–,–
O=C(NCC(CCNC1CCCC1)c1ccc(Cl)c(Cl)c1)Nc1ccc(F)c(F)c1 (stereo not drawn) [Example 144],0.501 to 2.5,–,–
O=C(NCc1ccc(F)c(F)c1)NCC(CCN1CCC(N2CCCCC2)CC1)c1ccc(Cl)c(Cl)c1 (stereo not drawn) [Example 258],–,0.051 to 0.5,–
Cc1ccc(C(CCN2CCCCC2)CNC(=O)c2cc(C(F)(F)F)cc(C(F)(F)F)c2)cc1 (stereo not drawn) [Example 454],–,–,Ki [3]: 0.501 to 2.5 µM
"CNCCC(C(=O)Nc1cc(Cl)cc(Cl)c1)c1ccc(-c2cccc(C#N)c2)cc1 (stereo not drawn) [Example 31, 2-(3′-Cyano-biphenyl-4-yl)-N-(3,5-dichloro-phenyl)-4-methylamino-butyramide]",0.501 to 2.5,–,–
N#Cc1cccc(-c2ccc(C(CCN3CCOCC3)CNC(=O)Nc3cc(Cl)cc(Cl)c3)cc2)c1 (stereo not drawn) [Example 81],0.0004 to 0.05,–,–
O=C(NCC(CCNC1CCCC1)c1ccc(Cl)c(Cl)c1)Nc1ccc(F)c(Cl)c1 (stereo not drawn) [Example 134],0.051 to 0.5,–,–
Cc1ccc(C(CCN2CCC(NC(=O)c3ccno3)CC2)CNC(=O)Nc2cc(Cl)cc(Cl)c2)cc1 (stereo not drawn) [Example 205],0.501 to 2.5,–,–
"CN(C)CCC(OC(=O)Nc1cc(Cl)cc(Cl)c1)c1ccc(-c2ccncc2)cc1 (stereo not drawn) [Example 33, (3,5-Dichloro-phenyl)-carbamic acid 3-dimethylamino-1-(4-pyridin-4-yl-phenyl)-propyl ester]",0.501 to 2.5,–,–
CN(C)CCCNCCC(CNC(=O)Nc1cc(Cl)cc(Cl)c1)c1ccc(-c2ccc(C(F)(F)F)cc2)cc1 (stereo not drawn) [Example 255],–,0.501 to 2.5,–
CN(C)CCCNCCC(CNC(=O)Nc1cc(Cl)cc(Cl)c1)c1ccc(-c2cc(C(F)(F)F)cc(C(F)(F)F)c2)cc1 (stereo not drawn) [Example 256],–,0.501 to 2.5,–
CC(=O)NC1CCN(CCC(CNC(=O)Nc2cc(Cl)cc(Cl)c2)c2ccc(Cl)cc2)C1 (stereo not drawn) [Example 186],0.051 to 0.5,–,–
CN(C)CCCNCCC(CNC(=O)Nc1cc(Cl)cc(Cl)c1)c1ccc(-c2cccnc2)cc1 (stereo not drawn) [Example 35],0.0004 to 0.05,–,–
CCNC(=O)N1CCC(NCCC(CNC(=O)Nc2cc(Cl)cc(Cl)c2)c2ccc(Cl)c(Cl)c2)C1 (stereo not drawn) [Example 182],0.051 to 0.5,–,–
"CC(C)NCCC(CNC(=O)Oc1ccc(Cl)cc1)c1ccc(-c2cccc(C#N)c2)cc1 (racemic) [Example 26, (R,S)-[-2-(3′-Cyano-biphenyl-4-yl)-4-isopropylaminobutyl]-carbamic acid-4-chlorophenyl ester]",0.501 to 2.5,–,–
O=C(NCC(CCNC1CCCC1)c1cccc(-c2ccc(Cl)c(Cl)c2)c1)Nc1cc(Cl)cc(Cl)c1 (stereo not drawn) [Example 157],0.051 to 0.5,–,–
COc1cc(CN(C)CCC(CNC(=O)Nc2cc(C(F)(F)F)cc(C(F)(F)F)c2)c2ccc(Cl)c(Cl)c2)cc(OC)c1OC (stereo not drawn) [Example 421],–,–,Ki [3]: 0.051 to 0.5 µM
CN(C)CCCNCCC(CNC(=O)Nc1cc(Cl)cc(Cl)c1)c1ccc(-c2ccc(C#N)cc2)cc1 (stereo not drawn) [Example 98],0.051 to 0.5,–,–
O=C(NCC(CCNCCc1c[nH]c2ccccc12)c1ccc(Cl)c(Cl)c1)Nc1cc(Cl)cc(Cl)c1 (stereo not drawn) [Example 294],–,0.501 to 2.5,–
O=C(NCC(CCNC1CCCC1)c1ccc(-c2ccc3c(c2)OCO3)cc1)Nc1cc(Cl)cc(Cl)c1 (stereo not drawn) [Example 227],–,0.051 to 0.5,–

# Continued, in another order:
Ki [1] [µM],Ki [2] [µM],Compound,also measured
–,0.501 to 2.5,O=S(=O)(NCC(CCN1CCC(c2ccccc2)CC1)c1ccc(Cl)c(Cl)c1)c1ccc(Cl)c(Cl)c1 (stereo not drawn) [Example 348],–
–,0.501 to 2.5,O=C(NCC(CCN1CCNCC1)c1ccc(Cl)c(Cl)c1)Nc1cc(C(F)(F)F)cc(C(F)(F)F)c1 (stereo not drawn) [Example 371],–
–,0.501 to 2.5,O=C(NCC(CCNCCCn1ccnc1)c1ccc(Cl)c(Cl)c1)c1cc(C(F)(F)F)cc(C(F)(F)F)c1 (stereo not drawn) [Example 414],–
–,0.051 to 0.5,O=C(NCC(CCN1CCC(N2CCCCC2)CC1)c1ccc(Cl)c(Cl)c1)Nc1ccc(F)c([N+](=O)[O-])c1 (stereo not drawn) [Example 356],–
–,0.501 to 2.5,CC1CCN(CCC(C(=O)NCc2cc(C(F)(F)F)cc(C(F)(F)F)c2)c2ccc(Cl)c(Cl)c2)CC1 (stereo not drawn) [Example 382],–
–,0.051 to 0.5,Cc1ccc(C(CCN2CCCCC2)CNC(=O)Nc2cc(Cl)cc(Cl)c2)cc1 (stereo not drawn) [Example 350],–
–,0.501 to 2.5,CCCN(CC)CCC(CNC(=O)c1cc(C(F)(F)F)cc(C(F)(F)F)c1)c1ccc(Cl)c(Cl)c1 (stereo not drawn) [Example 395],–
–,0.501 to 2.5,Cc1cc(CNC(=O)C(CCN2CCCC(C)C2)c2ccc(Cl)c(Cl)c2)cc(C(F)(F)F)c1 (stereo not drawn) [Example 391],–
–,0.501 to 2.5,O=C(NCC(CCN1CCCC1)c1cccc(Cl)c1)Nc1cc(C(F)(F)F)cc(C(F)(F)F)c1 (stereo not drawn) [Example 334],–
–,0.501 to 2.5,O=C(NCC(CCNCCc1c[nH]c2cc(F)ccc12)c1ccc(Cl)c(Cl)c1)c1cc(C(F)(F)F)cc(C(F)(F)F)c1 (stereo not drawn) [Example 415],–
–,0.501 to 2.5,CN(C)CCCNCCC(CNC(=O)Nc1cc(C(F)(F)F)cc(C(F)(F)F)c1)c1cccc(F)c1 (stereo not drawn) [Example 346],–
–,0.501 to 2.5,O=C(NCc1cc(C(F)(F)F)cc(C(F)(F)F)c1)C(CCN1CCCC(CO)C1)c1ccc(Cl)c(Cl)c1 (stereo not drawn) [Example 387],–
–,0.051 to 0.5,O=C(NCC(CCN1CCCC1)c1ccc(Cl)cc1)Nc1cc(C(F)(F)F)cc(C(F)(F)F)c1 (stereo not drawn) [Example 329],–
–,0.501 to 2.5,CCCCN(CCC(CNC(=O)c1cc(C(F)(F)F)cc(C(F)(F)F)c1)c1ccc(Cl)c(Cl)c1)C1CC1 (stereo not drawn) [Example 401],–
–,0.501 to 2.5,Cn1cnc(CCNCCC(CNC(=O)Nc2cc(C(F)(F)F)cc(C(F)(F)F)c2)c2ccc(Cl)c(Cl)c2)c1 (stereo not drawn) [Example 367],–
–,0.501 to 2.5,O=C(NCc1cc(C(F)(F)F)cc(C(F)(F)F)c1)C(CCNCCc1c[nH]c2ccc(F)cc12)c1ccc(Cl)c(Cl)c1 (stereo not drawn) [Example 386],–
–,0.501 to 2.5,CCNC(=O)NC1CCN(CCC(CNC(=O)Nc2cc(Cl)cc(Cl)c2)c2ccc(Cl)c(Cl)c2)CC1 (stereo not drawn) [Example 323],–
–,0.501 to 2.5,O=C(NCC(CCN1CCNCC1)c1ccc(Cl)c(Cl)c1)Nc1ccc(Cl)c(Cl)c1 (stereo not drawn) [Example 307],–
–,0.501 to 2.5,O=C(NCC(CCN1CCC(N2CCCCC2)CC1)c1ccc(Cl)c(Cl)c1)Nc1ccc(F)c(F)c1F (stereo not drawn) [Example 363],–
